# Where two headings read alike, the source gives them in different places.
# Test system: Tumorart P 388 (Leukämie)
# Assay: Survival of mice bearing P 388 leukemia (NCI protocol 1200), T/C
# Assay type: in vivo, Maus
# Settings: for Testergebnis in % T/C: repeat experiment; for response vs control in vivo at 50 mg/kg / response vs control in vivo at 100 mg/kg / response vs control in vivo at 200 mg/kg / response vs control in vivo at 25 mg/kg: Mus musculus; for Verlängerungsrate T/C: 9 injections; for T/C-Wert: unit not given
# Description: Die nachfolgenden Versuche wurden durchgeführt nach Testvorschriften des National Cancer Institute Bethesda, Maryland 200014, veröffentlicht in Cancer Chemotherapy Reports" Part. 3, September 1972, Vol. 3, Nr. 2. Als Wirksubstanz wurde 1,3-Diglycidyl-benzimidazolon des i vorstehenden Beispiels 1 verwendet. Die Substanz wurde als wäßrige, 1%ige Injektionslösung unmittelbar vor der Applikation frisch hergestellt.
# Bei Mäusen wurde gemäß Protokoll 1200 (Seite 91, c.) die Tumorart P 388 (Leukämie) i.p. mit 10^6 Zellen/Maus gesetzt. Die unbehandelten Tiere hatten eine mittlere überlebensdauer von 9,9 Tagen.
# Es wird der Wirkstoff appliziert. Der Wirkstoff wird dabei in 9.Gaben in unterschiedlichen Versuchsreihen einmal zu je 200 mg/kg und in einer anderen zu 100 mg/kg und in einer dritten Versuchsreihe zu je 50 mg/kg verabreicht. In beiden Fällen wird eine signifikante Verlängerung der Lebensdauer der behandelten Testtiere gegenüber der Kontrollgruppe der nicht behandelten Tiere erzielt. […] Bei der Testgruppe mit der Dosis von 100 mg/kg beträgt die durchschnittliche Lebenserwartung der Versuchstiere 18 Tage, T/C 181 %. Die Gruppe mit der Dosis 50 mg/kg hatte eine durchschnittliche Lebenserwartung von 15,3 Tagen, T/C 154 %. […]
# [1] = 50 mg/kg per single dose, 9 doses
# [2] = 100 mg/kg per single dose, 9 doses
# [3] = P388, 50 mg/kg per single dose, 9 doses, first test series, read-out: Verlängerungsrate T/C (Testergebnis in % T/C)
# [4] = P388, 100 mg/kg per single dose, 9 doses, first test series, read-out: Verlängerungsrate T/C (Testergebnis in % T/C)
# [5] = 200 mg/kg per single dose, 9 doses
# [6] = P388, 200 mg/kg per single dose, 9 doses, first test series, read-out: Verlängerungsrate T/C (Testergebnis in % T/C)
# [7] = P388, read-out: Testergebnis T/C (T/C-Wert), 25 mg/kg, second series, unit inferred
# [8] = P388, read-out: Testergebnis T/C (T/C-Wert), 50 mg/kg per single dose, first series, unit inferred
# [9] = P388, read-out: Testergebnis T/C (T/C-Wert), 50 mg/kg, second series, unit inferred
# [10] = P388, read-out: Testergebnis T/C (T/C-Wert), 100 mg/kg per single dose, first series, unit inferred
# [11] = P388, read-out: Testergebnis T/C (T/C-Wert), 100 mg/kg, second series, unit inferred
# [12] = P388, read-out: Testergebnis T/C (T/C-Wert), 200 mg/kg, second series, unit inferred
# [13] = P388, read-out: Verlängerungsrate T/C (Testergebnis in % T/C), 50 mg/kg per single dose, 9 doses, first test series
# [14] = P388, read-out: Verlängerungsrate T/C (Testergebnis in % T/C), 100 mg/kg per single dose, 9 doses, first test series
# [15] = P388, read-out: Testergebnis T/C (T/C-Wert), 200 mg/kg per single dose, first series, unit inferred
# [16] = P388, 50 mg/kg per single dose, first series, unit inferred, read-out: Testergebnis T/C (T/C-Wert)
# [17] = P388, 100 mg/kg per single dose, first series, unit inferred, read-out: Testergebnis T/C (T/C-Wert)
# [18] = P388, 200 mg/kg per single dose, first series, unit inferred, read-out: Testergebnis T/C (T/C-Wert)
smiles,measurement,setting,value
"CC1(C)C(=O)N(CC2CO2)C(=O)N1CC1CO1 (centres unmarked) [1,3-Diglycidyl-5,5-dimethylhydantoin]",Testergebnis in % T/C,25 mg/kg,136%
same,durchschnittliche Lebenserwartung der Versuchstiere,[1],"15,7 Tage"
same,Testergebnis in % T/C,50 mg/kg,151%
same,durchschnittliche Lebenserwartung der Versuchstiere,[2],22 Tage
same,Testergebnis in % T/C,100 mg/kg,239%
same,response vs control in vivo at 50 mg/kg,[3],158%
same,response vs control in vivo at 100 mg/kg,[4],222%
same,erhöhte Lebenserwartung gegenüber einer Kontrollgruppe nicht behandelter Versuchstiere,animal test at 100 mg/kg and 50 mg/kg,≤ 220%
"O=c1n(CC2CO2)c2ccccc2n1CC1CO1 (centres unmarked) [Beispiel 1, N,N'-Digylcidyl-Benzimidazolon]",Testergebnis in % T/C,25 mg/kg,133%
same,durchschnittliche Lebenserwartung der Versuchstiere,[1],"15,3 Tage"
same,Testergebnis in % T/C,50 mg/kg,136%
same,durchschnittliche Lebenserwartung der Versuchstiere,[2],18 Tage
same,Testergebnis in % T/C,100 mg/kg,161%
same,durchschnittliche Lebensdauer der Testgruppe,[5],20 Tage
same,Testergebnis in % T/C,200 mg/kg,166%
same,response vs control in vivo at 50 mg/kg,[3],154%
same,response vs control in vivo at 100 mg/kg,[4],181%
same,response vs control in vivo at 200 mg/kg,[6],202%
"CN1C(=O)N(CC2CO2)C2C1N(CC1CO1)C(=O)N2C (centres unmarked) [Beispiel 5, 3,6 Diglycidyl-1,4-dimethylglykoluril]",Verlängerungsrate T/C (Testergebnis in % T/C),"50 mg/kg per single dose, 9 doses, first test series",134%
same,durchschnittliche Lebenserwartung der Versuchstiere,[2],"15,8 Tage"
same,Verlängerungsrate T/C (Testergebnis in % T/C),"100 mg/kg per single dose, 9 doses, first test series",157%
same,Verlängerungsrate T/C (Testergebnis in % T/C),"200 mg/kg per single dose, 9 doses, first test series",190%
"CCC1(CC)C(=O)N(CC2CO2)C(=O)N(CC2CO2)C1=O (centres unmarked) [Beispiel 10, 1,3-Diglycidyl-5,5-diethylbarbitursäure]",durchschnittliche Lebenserwartung der Versuchstiere,[1],"15,3 Tage"
same,durchschnittliche Lebenserwartung der Versuchstiere,[2],22 Tage
same,response vs control in vivo at 25 mg/kg,[7],94%
same,response vs control in vivo at 50 mg/kg,[8],147%
same,response vs control in vivo at 50 mg/kg,[9],111%
same,response vs control in vivo at 100 mg/kg,[10],211%
same,response vs control in vivo at 100 mg/kg,[11],158%
same,response vs control in vivo at 200 mg/kg,[12],230%
same,response vs control in vivo at 50 mg/kg,[13],147%
same,response vs control in vivo at 100 mg/kg,[14],211%
"CC(C)CC1C(=O)N(CC2CO2)C(=O)N(CC2CO2)C1=O (centres unmarked) [Beispiel 11, 1,3-Diglycidyl-5-isobutylbarbitursäure]",response vs control in vivo at 25 mg/kg,[7],129%
same,response vs control in vivo at 50 mg/kg,[8],133%
same,response vs control in vivo at 50 mg/kg,[9],158%
same,response vs control in vivo at 100 mg/kg,[10],158%
same,response vs control in vivo at 100 mg/kg,[11],184%
same,response vs control in vivo at 200 mg/kg,[15],194%
same,response vs control in vivo at 200 mg/kg,[12],252%
"O=c1ccn(CC2CO2)c(=O)n1CC1CO1 (centres unmarked) [Beispiel 13, N,N'-Diglycidyluracil]",durchschnittliche Lebenserwartung der Versuchstiere,[2],"16,0 Tage"
same,Testergebnis in % T/C,100 mg/kg,152%
same,durchschnittliche Lebensdauer der Testgruppe,[5],24 Tage
same,Testergebnis in % T/C,200 mg/kg,198%
same,response vs control in vivo at 25 mg/kg,"P388, 25 mg/kg, second series, unit inferred, read-out: Testergebnis T/C (T/C-Wert)",114%
same,response vs control in vivo at 50 mg/kg,[16],131%
same,response vs control in vivo at 50 mg/kg,"P388, 50 mg/kg, second series, unit inferred, read-out: Testergebnis T/C (T/C-Wert)",124%
same,response vs control in vivo at 100 mg/kg,[4],153%
same,response vs control in vivo at 100 mg/kg,[17],156%
same,response vs control in vivo at 100 mg/kg,"P388, 100 mg/kg, second series, unit inferred, read-out: Testergebnis T/C (T/C-Wert)",152%
same,response vs control in vivo at 200 mg/kg,[6],230%
same,response vs control in vivo at 200 mg/kg,[18],230%
same,response vs control in vivo at 200 mg/kg,"P388, 200 mg/kg, second series, unit inferred, read-out: Testergebnis T/C (T/C-Wert)",198%
"O=c1c2cc3c(=O)n(CC4CO4)c(=O)c3cc2c(=O)n1CC1CO1 (centres unmarked) [Beispiel 16, N,N^I-Diglycidylbenzoltetracarbonsäure-(1,2,4,5,)diimid]",Verlängerungsrate T/C,"6,25 mg/kg per single dose",156%
same,Verlängerungsrate T/C,"12,5 mg/kg per single dose",200%
"O=C1N(CC2CO2)CCN1CC1CO1 (centres unmarked) [Beispiel 18 a), Diglycidylethylenharnstcff]",response vs control in vivo at 25 mg/kg,[7],119%
same,response vs control in vivo at 50 mg/kg,[8],130%
same,response vs control in vivo at 50 mg/kg,[9],142%
same,response vs control in vivo at 100 mg/kg,[10],155%
same,response vs control in vivo at 100 mg/kg,[11],158%
same,response vs control in vivo at 200 mg/kg,[15],206%
same,response vs control in vivo at 200 mg/kg,[12],213%
"O=c1cnn(CC2CO2)c(=O)n1CC1CO1 (centres unmarked) [Beispiel 20, 2,4-Diglycidyl-2,3,4,5-tetrahydro-1,2,4-triazin-3,5-dion]",response vs control in vivo at 50 mg/kg,[16],189%
same,response vs control in vivo at 100 mg/kg,[17],228%
"O=c1c2c(ncn2CC2CO2)n(CC2CO2)c(=O)n1CC1CO1 (centres unmarked) [Beispiel 23, 1,3,7-Triglycidyl-xanthin]",response vs control in vivo at 50 mg/kg,[13],147%
same,response vs control in vivo at 100 mg/kg,[14],147%
same,response vs control in vivo at 200 mg/kg,"P388, read-out: Verlängerungsrate T/C (Testergebnis in % T/C), 200 mg/kg per single dose, 9 doses, first test series",173%
"O=c1n(CC2CO2)c(=O)n(CC2CO2)n1CC1CO1 (centres unmarked) [Beispiel 26, 1,2,4-Triglycidylurazol]",T/C-Wert,25 mg/kg per single dose,>260
same,T/C-Wert,"6,25 mg/kg per single dose",180
same,T/C-Wert,"12,5 mg/kg per single dose",230
same,response vs control in vivo at 50 mg/kg,[16],298%
"O=c1n(-c2ccccc2)c(=O)n(CC2CO2)n1CC1CO1 (centres unmarked) [Beispiel 27, 1,2-Diglycidyl-4-phenylurazol]",T/C-Wert,25 mg/kg per single dose,120
same,response vs control in vivo at 50 mg/kg,[16],120%
same,response vs control in vivo at 100 mg/kg,[17],150%
same,response vs control in vivo at 200 mg/kg,[18],200%
"O=c1c(Br)cn(CC2CO2)c(=O)n1CC1CO1 (centres unmarked) [Diglycidyl-5-bromuracil, N,N'-Diglycidyl-5-bromuracil]",response vs control in vivo at 50 mg/kg,[16],173%
same,response vs control in vivo at 100 mg/kg,[17],193%
"O=c1c(F)cn(CC2CO2)c(=O)n1CC1CO1 (centres unmarked) [Diglycidyl-5-floururacil, N,N'-Diglycidyl-5-fluoruracil]",response vs control in vivo at 50 mg/kg,[16],179%
same,response vs control in vivo at 100 mg/kg,[17],300%
"O=c1c(I)cn(CC2CO2)c(=O)n1CC1CO1 (centres unmarked) [Diglycidyl-5-joduracil, N,N'-Diglycidyl-5-ioduracil]",response vs control in vivo at 50 mg/kg,[16],124%
same,response vs control in vivo at 100 mg/kg,[17],166%
same,response vs control in vivo at 200 mg/kg,[18],189%
"O=c1n(CC2CO2)c2cc(Cl)c(Cl)cc2n1CC1CO1 (centres unmarked) [R2 -Cl R3 -Cl, N,N-Diglycidyl-5,6-di-chlor-benzimidazolon]",response vs control in vivo at 50 mg/kg,[3],158%
same,response vs control in vivo at 100 mg/kg,[4],120%
"CCCCCC(=O)c1ccc2c(c1)n(CC1CO1)c(=O)n2CC1CO1 (centres unmarked) [R2 -H R3 -C-C5H11 "" O, N,N-Diglycidyl-5-caproyl-benzimidazolon]",response vs control in vivo at 50 mg/kg,[3],167%
same,response vs control in vivo at 100 mg/kg,[4],198%
same,response vs control in vivo at 200 mg/kg,[6],130%
"O=c1n(CC2CO2)c2ccc(Cl)cc2n1CC1CO1 (centres unmarked) [R2 -H R3 -Cl, N,N'-Digylcidyl-5-chlor-benzimidazolon]",Testergebnis in % T/C,25 mg/kg,156%
same,Testergebnis in % T/C,50 mg/kg,181%
same,Testergebnis in % T/C,100 mg/kg,92%
same,Testergebnis in % T/C,"12,5 mg/kg",145%
same,response vs control in vivo at 50 mg/kg,[13],191%
same,response vs control in vivo at 100 mg/kg,[14],234%
"COc1ccc2c(c1)n(CC1CO1)c(=O)n2CC1CO1 (centres unmarked) [R2 -H R3 -O-CH3, N,N-Diglycidyl-5-methoxy-benzimidazolon]",response vs control in vivo at 50 mg/kg,[3],175%
same,response vs control in vivo at 100 mg/kg,[4],225%
"O=C1N(CC2CO2)C(=O)C(c2ccccc2)(c2ccccc2)N1CC1CO1 (centres unmarked) [R5 C6H5-R6 C6H5-, Diglycidyl-diphenylhydantoin]",Testergebnis in % T/C,100 mg/kg,136%
same,Testergebnis in % T/C,200 mg/kg,149%
same,response vs control in vivo at 100 mg/kg,[4],122%
same,response vs control in vivo at 200 mg/kg,[6],130%
"CCC1(c2ccccc2)C(=O)N(CC2CO2)C(=O)N1CC1CO1 (centres unmarked) [R5 CH3-CH2-R6 C6H5-, Diglycidyl-5-phenyl-5-ethylhydantoin]",Testergebnis in % T/C,50 mg/kg,111%
same,Testergebnis in % T/C,100 mg/kg,146%
same,Testergebnis in % T/C,200 mg/kg,188%
same,response vs control in vivo at 50 mg/kg,[3],125%
same,response vs control in vivo at 100 mg/kg,[4],156%
same,response vs control in vivo at 200 mg/kg,[6],222%
"CC1(c2ccccc2)C(=O)N(CC2CO2)C(=O)N1CC1CO1 (centres unmarked) [R5 CH3-R6 C6H5-, Diglycidyl-5-phenyl-5-methyl-hydantoin]",response vs control in vivo at 50 mg/kg,[3],100%
same,response vs control in vivo at 100 mg/kg,[4],160%
same,response vs control in vivo at 200 mg/kg,[6],250%

# From EP0033503A2, “Medicaments with cytostatic activity and use of cyclic compounds, in which the heterocyclic N-ring atoms are substituted by several glycidyl groups, in pharmaceutical compositions” (Henkel Kommanditgesellschaft auf Aktien, priority 1980, dated 1981)
